Source: patent US20240000075A1, “FUNGICIDAL ARYL AMIDINES” (CORTEVA AGRISCIENCE LLC, priority 2020, published 2024)
Like-named read-outs stand apart in the source and are kept apart here.

Tests used:
[1] = system: Zymoseptoria tritici; assay: Septoria leaf blotch of wheat, whole-plant fungicidal activity (SEPTTR); format: in vivo, Zymoseptoria tritici on wheat plants (variety 'Yuma'); conditions: read-out: % Disease Control Rating SEPTTR
Method: Example A: Evaluation of Fungicidal Activity: Septoria Leaf Blotch of Wheat (Zymoseptoria tritici; Bayer Code […]) Technical grades of materials were dissolved in acetone, which were then mixed with nine volumes of water (H2O) containing 110 ppm Triton X-100. The fungicide solutions were applied onto wheat seedlings using an automated booth sprayer to run-off. All sprayed plants were allowed to air dry prior to further handling. All fungicides were evaluated using the aforementioned method for their activity vs. all target diseases, unless stated otherwise. Wheat plants (variety 'Yuma') were grown from seed in a greenhouse in soil-less potting mix until the first leaf was fully emerged, with 7-10 seedlings per pot. These plants were inoculated with an aqueous spore suspension of Zymoseptoria tritici either 3 days prior to fungicide treatment (3 day curative; 3DC) or 1 day after fungicide treatment (1 day protectant; 1DP). After inoculation the plants were kept in 100% relative humidity for three days to permit spores to germinate and infect the leaf. The plants were then transferred to a greenhouse for disease to develop. When disease symptoms were fully expressed on the 1st leaves of untreated plants, infection levels were assessed on a scale of 0 to 100 percent disease severity. Percent disease control was calculated using the ratio of disease severity on treated plants relative to untreated plants.

[2] = system: Phakopsora pachyrhizi; assay: Asian soybean rust, whole-plant fungicidal activity (PHAKPA); format: in vivo; conditions: read-out: % Disease Control Rating PHAKPA
Method: Example C: Evaluation of Fungicidal Activity: Asian Soybean Rust (Phakopsora pachyrhizi; Bayer Code […]) Technical grades of materials were dissolved in acetone, which were then mixed with nine volumes of H2O containing 0.011% Tween-20. The fungicide solutions were applied onto soybean seedlings using an automated booth sprayer to run-off. All sprayed plants were allowed to air dry prior to further handling. Soybean plants (variety 'Williams 82') were grown in soil-less potting mix, with one plant per pot. Ten-day-old seedlings were used for testing. Plants were inoculated as described in Example A. Plants were incubated for 24 h in a dark dew room with 100% relative humidity then transferred to a growth room for disease to develop. Fungicide formulation and application were made as described in Example A. When disease symptoms were fully expressed, disease severity was assessed on the sprayed leaves on a scale of 0 to 100 percent. Percent disease control was calculated using the ratio of disease severity on treated plants relative to untreated plants.

[3] = system: Puccinia triticina; assay: Wheat brown rust, whole-plant fungicidal activity (PUCCRT); format: in vivo, Puccinia triticina on wheat plants (variety 'Yuma'); conditions: 24 h, 1DP (1 day protectant), read-out: % Disease Control Rating PUCCRT
Method: Technical grades of materials were dissolved in acetone, which were then mixed with nine volumes of water (H2O) containing 110 ppm Triton X-100. The fungicide solutions were applied onto wheat seedlings using an automated booth sprayer to run-off. All sprayed plants were allowed to air dry prior to further handling. All fungicides were evaluated using the aforementioned method for their activity vs. all target diseases, unless stated otherwise.
Example B: Evaluation of Fungicidal Activity: Wheat Brown Rust (Puccinia triticina; Synonym: Puccinia recondita f sp. tritici; Bayer Code PUCCRT)
Wheat plants (variety ‘Yuma’) were grown from seed in a greenhouse in soil-less potting mix until the first leaf was fully emerged, with 7-10 seedlings per pot. These plants were inoculated with an aqueous spore suspension of Puccinia triticina after fungicide treatments. After inoculation, the plants were kept in a dark dew room with 100% relative humidity overnight to permit spores to germinate and infect the leaf. The plants were then transferred to a greenhouse for disease to develop. Fungicide formulation, application and disease assessment followed the procedures as described in Example A.

[4] = system: Rhynchosporium commune; assay: Leaf blotch of barley, whole-plant fungicidal activity (RHYNSE); format: in vivo; conditions: 24 h, 1DP (1 day protectant), read-out: % Disease Control Rating RHYNSE
Method: Technical grades of materials were dissolved in acetone, which were then mixed with nine volumes of water (H2O) containing 110 ppm Triton X-100. The fungicide solutions were applied onto wheat seedlings using an automated booth sprayer to run-off. All sprayed plants were allowed to air dry prior to further handling. All fungicides were evaluated using the aforementioned method for their activity vs. all target diseases, unless stated otherwise. Example D: Evaluation of Fungicidal Activity: Leaf Blotch of Barley (Rhynchosporium commune; Bayer Code […]) Barley plants (variety 'Harrington') were grown from seed in a greenhouse in soil-less potting mix until the first leaf was fully emerged, with 7-10 seedlings per pot. These plants were inoculated with an aqueous spore suspension of Rhynchosporium commune after fungicide treatments. After inoculation, the plants were kept in a dark dew room with 100% relative humidity for two days to permit spores to germinate and infect the leaf. The plants were then transferred to a greenhouse for disease to develop. Fungicide formulation and application were made as described in Example A. Disease assessment was conducted as described in Example A.

Row | SMILES | pest or weed control at 200 ppm ([1]; 24 h, 1DP (1 day protectant)) | pest or weed control at 200 ppm ([1]; 72 h, 3DC (3 day curative)) | pest or weed control at 200 ppm ([2]; 24 h, 1DP (1 day protectant)) | pest or weed control at 200 ppm ([2]; 72 h, 3DC (3 day curative)) | pest or weed control at 200 ppm [3] | pest or weed control at 200 ppm [4]
1 | CCN(C)/C=N/c1cc(C)c(C(=O)CC2CCC2)cc1C [Compound 27] | > 85% | 50 to 85% | > 85% | > 85% | > 85% | > 85%
2 | CCN(C)/C=N/c1cc(C)c(C(=O)CCC(F)(F)C(F)(F)F)cc1C [Compound 29] | 50 to 85% | 50 to 85% | > 85% | > 85% | > 85% | > 85%
3 | CCN(C)/C=N/c1cc(F)c(C(=O)CC2CCCC2)cc1C [Compound 30] | < 20% | < 20% | > 85% | > 85% | 50 to 85% | < 20%
4 | CCN(C)/C=N/c1cc(C)c(C(=O)Cc2cccc(C(=O)OC)c2F)cc1C [Compound 31] | > 85% | < 20% | < 20% | < 20% | > 85% | 50 to 85%
5 | CCN(C)/C=N/c1cc(C)c(C(=O)Cc2ccc(Cl)cc2F)cc1C [Compound 32] | > 85% | < 20% | > 85% | > 85% | > 85% | > 85%
6 | CCN(C)/C=N/c1cc(C)c(C(=O)Cc2ccccc2OC(F)(F)F)cc1C [Compound 33] | > 85% | 50 to 85% | > 85% | > 85% | > 85% | > 85%
7 | CCN(C)/C=N/c1cc(C)c(C(=O)Cc2cccc(OC(F)(F)F)c2)cc1C [Compound 34] | 50 to 85% | < 20% | > 85% | > 85% | > 85% | > 85%
8 | CCN(C)/C=N/c1cc(OC)c(C(=O)CC2CCCC2)cc1C [Compound 35] | 50 to 85% | < 20% | > 85% | > 85% | > 85% | > 85%
9 | CCN(C)/C=N/c1cc(C)c(C(=O)Cc2cccc(C(F)(F)F)c2F)cc1C [Compound 36] | – | < 20% | > 85% | > 85% | > 85% | 50 to 85%
10 | CCN(C)/C=N/c1cc(OC)c(C(=O)Cc2c(F)cc(F)cc2F)cc1C [Compound 37] | > 85% | 50 to 85% | > 85% | > 85% | > 85% | < 20%
11 | Cc1cc(C(=O)CC2CCCCC2)c(C)cc1/N=C/N(C)CC(F)(F)F [Compound 38] | < 20% | < 20% | < 20% | < 20% | < 20% | < 20%
12 | C=CCN(C)/C(S)=N/c1cc(C)c(C(=O)CC2CCCCC2)cc1C [Compound 45] | < 20% | < 20% | 20 to 50% | 50 to 85% | > 85% | < 20%
13 | Cc1cc(C(=O)CC2CCCCC2)c(C)cc1/N=C(\S)N(C)CC(F)(F)F [Compound 46] | < 20% | < 20% | 20 to 50% | < 20% | < 20% | < 20%
14 | Cc1cc(C(=O)CC2CCCCC2)c(C)cc1/N=C(\S)N(C)C(C)C [Compound 47] | > 85% | < 20% | > 85% | > 85% | > 85% | 20 to 50%
15 | Cc1cc(C(=O)CC2CCCCC2)c(C)cc1/N=C(\S)N(C)C1CCCCC1 [Compound 48] | < 20% | < 20% | < 20% | < 20% | < 20% | < 20%
16 | Cc1cc(C(=O)CC2CCCCC2)c(C)cc1/N=C(\S)N1CCCC1 [Compound 49] | 20 to 50% | < 20% | > 85% | 50 to 85% | > 85% | < 20%
17 | Cc1cc(C(=O)CC2CCCCC2)c(C)cc1/N=C(\S)N1CCCCC1 [Compound 50] | > 85% | 20 to 50% | > 85% | > 85% | > 85% | < 20%
18 | Cc1cc(C(=O)CC2CCCCC2)c(C)cc1/N=C(\S)N(C)c1ccccc1 [Compound 51] | 20 to 50% | < 20% | < 20% | < 20% | < 20% | < 20%
19 | Cc1cc(C(=O)CC2CCCCC2)c(C)cc1/N=C(\S)N(C)C [Compound 52] | 20 to 50% | < 20% | > 85% | 50 to 85% | > 85% | < 20%
20 | Cc1cc(C(=O)CC2CCCCC2)c(C)cc1/N=C(\S)N(C)Cc1ccccc1 [Compound 53] | < 20% | < 20% | < 20% | < 20% | < 20% | < 20%
21 | Cc1cc(C(=O)CC2CCCCC2)c(C)cc1/N=C(\S)N(C)C1CC1 [Compound 54] | > 85% | < 20% | > 85% | 50 to 85% | > 85% | < 20%
22 | CCN(CC)/C(S)=N/c1cc(C)c(C(=O)CC2CCCCC2)cc1C [Compound 55] | 50 to 85% | < 20% | > 85% | > 85% | > 85% | < 20%
23 | Cc1cc(C(=O)CC2CCCCC2)c(C)cc1/N=C/N(C)Cc1ccccc1 [Compound 56] | < 20% | < 20% | < 20% | < 20% | 20 to 50% | < 20%
